Patent US20250127732A1 (AXSOME THERAPEUTICS, INC., priority 2018, published 2025)

What was measured:
[1] = Part 3: randomized, double-blind, placebo-controlled multiple-dose trial of S- and R-bupropion with pharmacokinetic sampling (plasma concentrations Day 7); assay type: in vivo; details: human, 105 mg BID SR tablets oral, fasting, Day 7 at 3-4 hours after dosing, n = 15
Method: A randomized, double-blind, multiple-dose, placebo-controlled, parallel group trial was conducted to examine the safety and tolerability of the pure S-and R-enantiomers of bupropion, with pharmacokinetic sampling.

clinical = details: human, in vivo, po, 105 mg

Row | Mean concentration of bupropion [1] | AUC(0-t) at 12 h (clinical) | SMILES
1 | 15.1 ng/mL | – | C[C@@H](NC(C)(C)C)C(=O)c1cccc(Cl)c1 [R-bupropion, (R)-bupropion, reference compound]
2 | 170.9 ng/mL | 793 ng·h/mL | C[C@H](NC(C)(C)C)C(=O)c1cccc(Cl)c1 [S-bupropion, (S)-bupropion]
